For series [1], the system named is ALDH1A1. Briefly: ALDH1A1 concentration by ELISA in 769-P cells. Type of series: cell-based, human. How it is done: (§1) The effect of compounds WZ1–WZ4 on ALDHA1 levels was investigated (Figure 10). The Du145, HepG2 and 769-P cell lines were treated with the calculated IC25 values for each compound.
(§2) Selected cell lines, viz HepG2, Du145 and 769-P, were seeded into 6-well plates and incubated for 24 h after seeding with compounds at a concentration equal to IC25. After a further 24 h or 48 h, cells were detached with trypsin and centrifuged. The resulting cell pellet was resuspended in 0.5 mL PBS. The samples were then sonicated, and protein was determined using the Bradford method (Bio-rad; Hercules, CA, USA). Samples were equilibrated to 10 mg/mL of protein, and ALDH1A1 was determined in the samples prepared in this way. ALDH1A1 determination was performed using an ELISA (SEE824Hu; Cloud Clone Corp., Katy, TX, USA), according to the manufacturer’s protocol.
For orientation: In an ELISA, binding on a coated surface is turned into a signal by an enzyme label.

The next series in a line: in vitro. In kind it is cell-based, sheep. As to conditions: sheep. How it is done:
The toxicity of WZ1–WZ4 compounds towards red blood cells was tested using the erythrocyte lysis assay (ELA). Erythrocytes from fresh sheep blood (BioMaxima S.A., Poland) were centrifuged and washed with 0.85% NaCl. Next, 100 μL of a 2% suspension of red blood cells in physiological saline was added to the wells of microtiter plate. The double dilutions of compounds WZ1–WZ4 were prepared in the range of 2000–15.62 μg/mL. Appropriate controls were used to assess the hemolytic potential of tested compounds, i.e., 100% lysis of erythrocytes using 4% Triton X-100 (Pol-Aura, Różnowo, Poland) and 0% lysis in saline solution. Next, all sample plates were incubated (1 h at 37 °C), centrifuged for 10 min to separate unlysed red blood cells, and the supernatant was placed in a new plate. The ELA is a biological test by which the lytic response can be measured spectrophotometrically (at a wavelength of 450 nm) by the amount of hemoglobin released. The hemolysis percentage was calculated according to the following equation:(1) % Hemolysis = A450 of test compound treated sample − A450 of buffer treated sample/A450 of 4% Triton X100 treated samples − A450 of buffer treated sample × 100

Series [2] relates to ALDH1A1. Briefly: ALDH1A1 concentration by ELISA in HepG2 cells. In kind it is cell-based, human. As to conditions: compound at IC25, 48 h. How it is done:
as §1, §2

Another series has as its system Gram-negative bacteria. In words: Broth microdilution, summary over reference Gram-negative bacteria. In kind it is cell-based. The source says: Reference strains of microorganisms that came from American Type Culture Collection (ATCC) (Manassas, VA, USA) were used for this study. The representative Gram-positive bacteria were as follows: Staphylococcus aureus ATCC 25923, Staphylococcus aureus ATCC 29213, Staphylococcus aureus ATCC 43300, Staphylococcus epidermidis ATCC 12228, Enterococcus faecalis ATCC 29212, Micrococcus luteus ATCC 10240, Bacillus subtilis ATCC 6633 and Bacillus cereus ATCC 10876. […]
The new compounds WZ1–WZ4 were assayed for both antibacterial and antifungal activity using the broth microdilution method in accordance with the European Committee on Antimicrobial Susceptibility Testing (EUCAST) and Clinical and Laboratory Standards Institute (CLSI) guidelines. […] The antimicrobial effect of compounds WZ1–WZ4 was determined in the concentration range from 2000 to 0.98 µg/mL.
Then, the microbial suspensions were introduced into each well of the microplate and incubated for 18–24 h at 35 °C. […] Next, the values of the minimum bactericidal concentration (MBC) and minimum fungicidal concentration (MFC) of WZ1–WZ4 were assessed. […] The lowest concentrations of compounds without microbial growth were read as MBC or MFC. […]

Converted amounts (≈) assume the structure as drawn. “Also recorded” adds a separate entry of the source.

The MIC is the lowest concentration that inhibits growth of the organism. A higher MIC goes with a less susceptible organism.

Take `O=S(=O)(NNC(=S)NC1CCCCC1)c1ccccc1` [WZ1, 2-(Benzenesulfonyl)-N-Cyclohexylhydrazine-1-Carbothioamide]: the “ALDH1A1 concentration compared to control” value in the series with ALDH1A1 [1] (compound at IC25, 24 h) is recorded as “decrease”. In the series “in vitro”, this compound showed a hemolysis at 1 h, 15.62 μg/mL of 0%; a hemolysis at 1 h, 31.25 μg/mL of 0%; a hemolysis at 1 h, 62.5 μg/mL of 0%; a hemolysis at 1 h, 125 μg/mL of 2.11%. In the series “in vitro”, this compound yielded a hemolysis at 1 h, 250 μg/mL of 7.89%; a hemolysis at 1 h, 500 μg/mL of 14.2%; a hemolysis at 1 h, 1000 μg/mL of 18.4%; a hemolysis at 1 h, 2000 μg/mL of 34.7%.

As for `CCCCNC(=S)NNS(=O)(=O)c1ccccc1` [WZ2, 2-(Benzenesulfonyl)-N-Butylhydrazine-1-Carbothioamide], the “ALDH1A1 concentration compared to control” value in the series on ALDH1A1 [2] is recorded as “increase; also recorded: increased levels”. The “ALDH1A1 concentration compared to control” value in the series on ALDH1A1 [1] (compound at IC25, 24 h) is recorded as “no significant changes”. Besides, the “ALDH1A1 concentration compared to control” value in the series on ALDH1A1 [1] (compound at IC25, 48 h) was “significant decrease”. Further, in “in vitro”, the hemolysis at 1 h, 15.62 μg/mL amounted to 0%; the hemolysis at 1 h, 31.25 μg/mL came out at 0%; the hemolysis at 1 h, 62.5 μg/mL was 0%; the hemolysis at 1 h, 125 μg/mL stood at 3.15%. In “in vitro”, this compound showed a hemolysis at 1 h, 250 μg/mL of 8.95%; a hemolysis at 1 h, 500 μg/mL of 19.5%; a hemolysis at 1 h, 1000 μg/mL of 27.9%; a hemolysis at 1 h, 2000 μg/mL of 36.8%.

In the case of `CCCCCCNC(=S)NNS(=O)(=O)c1ccccc1` [WZ3, 2-(Benzenesulfonyl)-N-Hexylhydrazine-1-Carbothioamide], the “ALDH1A1 concentration compared to control” value in the series on ALDH1A1 [1] (compound at IC25, 24 h) is “increase”. Further, in the series “in vitro”, the hemolysis at 1 h, 15.62 μg/mL is 0%; the hemolysis at 1 h, 31.25 μg/mL was 0%; the hemolysis at 1 h, 62.5 μg/mL worked out at 0%; the hemolysis at 1 h, 125 μg/mL is 1.14%. In the series “in vitro”, this compound came in with a hemolysis at 1 h, 250 μg/mL of 11.4%; a hemolysis at 1 h, 500 μg/mL of 18.2%; a hemolysis at 1 h, 1000 μg/mL of 43.2%; a hemolysis at 1 h, 2000 μg/mL of 85.8%. Also, the MIC with Gram-negative bacteria (Gram-negative rods from Enterobacterales and Pseudomonas aeruginosa) lay in the range of 500 to 1000 µg/mL (≈ 1.58 to 3.17 mM). Moreover, in the series on Gram-negative bacteria (remaining Gram-negative bacteria (other than B. bronchiseptica and E. coli)), the MIC stood at 1000 µg/mL (≈ 3.17 mM).

On to `CNC(=S)NNS(=O)(=O)c1ccccc1` [WZ4, 2-(Benzenesulfonyl)-N-Methylhydrazine-1-Carbothioamide], for which the “ALDH1A1 concentration compared to control” value in the series with ALDH1A1 [2] is reported as “increase; also recorded: increased levels”. Moreover, in the series on ALDH1A1 [1] (compound at IC25, 24 h), the “ALDH1A1 concentration compared to control” value is “decrease”. The “ALDH1A1 concentration compared to control” value with ALDH1A1 [1] (compound at IC25, 48 h) was “significant decrease”. Also, in the series “in vitro”, the hemolysis at 1 h, 15.62 μg/mL came out at 0%; the hemolysis at 1 h, 31.25 μg/mL amounted to 0%; the hemolysis at 1 h, 62.5 μg/mL stood at 0%; the hemolysis at 1 h, 125 μg/mL came out at 3.16%. Also, in the series “in vitro”, the hemolysis at 1 h, 250 μg/mL stood at 15.8%; the hemolysis at 1 h, 500 μg/mL amounted to 45.3%; the hemolysis at 1 h, 1000 μg/mL was found to be 88.4%; the hemolysis at 1 h, 2000 μg/mL came out at 100%.

(Values after paper PMC10747733, “N-Substituted 2-(Benzenosulfonyl)-1-Carbotioamide Derivatives Exert Antimicrobial and Cytotoxic Effects via Aldehyde Dehydrogenase Pathway: Synthesis, In Silico and In Vitro Studies” (Pharmaceuticals, 2023).)
